According to patent US20120178815A1, “Compositions of (-)-E-10-OH-NT and Methods for Their Synthesis and Use” (Adolor Corporation, priority 2007, published 2012):
“And” between values parts separate entries of the source, which are not always exact repeats. Equal values may be shown once. “Also recorded” adds a separate entry of the source. Read-outs that look alike come from different tables or passages of the source.

Key:
CYP2C19 = molecular target: T1, CYP2C19 (Homo sapiens, UniProt P33261); experiment: CYP2C19 inhibition, DBF substrate; type: in vitro ADME; settings: average of six replicate experiments; for IC50: 95% confidence limits in parentheses, read-out: Inhibition of CYPD2C19, IC50; for inhibition at 10 µM: human, microsomes containing human recombinant CYP2C19, probe dibenzylfluorescein (DBF), 10 μM test compound, read-out: Inhibition of CYPD2C19, % inhib. at 10 μM
T1 construct: purchased BD Biosciences (San Jose, Calif.)
T1 sequence (P33261 whole entry): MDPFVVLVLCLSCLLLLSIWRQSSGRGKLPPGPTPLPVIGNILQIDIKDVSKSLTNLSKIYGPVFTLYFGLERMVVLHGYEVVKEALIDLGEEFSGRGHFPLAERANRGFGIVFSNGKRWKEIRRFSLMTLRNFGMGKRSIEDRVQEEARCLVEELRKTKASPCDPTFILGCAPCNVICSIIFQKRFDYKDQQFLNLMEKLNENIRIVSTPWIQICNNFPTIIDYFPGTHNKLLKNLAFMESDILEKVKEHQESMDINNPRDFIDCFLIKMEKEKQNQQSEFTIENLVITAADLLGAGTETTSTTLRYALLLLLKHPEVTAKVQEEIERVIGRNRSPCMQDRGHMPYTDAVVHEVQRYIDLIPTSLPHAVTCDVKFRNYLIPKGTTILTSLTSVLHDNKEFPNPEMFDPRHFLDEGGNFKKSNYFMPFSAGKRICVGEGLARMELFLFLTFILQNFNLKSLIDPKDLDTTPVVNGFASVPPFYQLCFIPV
Experimental: CYP2C19 activity was measured using dibezylflourescein (DBF) as substrate. The source of enzyme was microsomes containing human recombinant CYP2C19 obtained from BD Biosciences (San Jose, Calif.). Conversion of DBF to fluorescein was measured using a PerkinElmer Fusion with a 485 nm excitation filter and a 535 nm emission filter.

α1b adrenergic receptor = molecular target: T2, α1b adrenergic receptor (Homo sapiens, UniProt P35368); experiment: α1b adrenergic receptor binding, [3H]prazocine
T2 construct: expressed in transfected cells; host or cells: CHO cells (membranes)
T2 sequence (P35368 1-520): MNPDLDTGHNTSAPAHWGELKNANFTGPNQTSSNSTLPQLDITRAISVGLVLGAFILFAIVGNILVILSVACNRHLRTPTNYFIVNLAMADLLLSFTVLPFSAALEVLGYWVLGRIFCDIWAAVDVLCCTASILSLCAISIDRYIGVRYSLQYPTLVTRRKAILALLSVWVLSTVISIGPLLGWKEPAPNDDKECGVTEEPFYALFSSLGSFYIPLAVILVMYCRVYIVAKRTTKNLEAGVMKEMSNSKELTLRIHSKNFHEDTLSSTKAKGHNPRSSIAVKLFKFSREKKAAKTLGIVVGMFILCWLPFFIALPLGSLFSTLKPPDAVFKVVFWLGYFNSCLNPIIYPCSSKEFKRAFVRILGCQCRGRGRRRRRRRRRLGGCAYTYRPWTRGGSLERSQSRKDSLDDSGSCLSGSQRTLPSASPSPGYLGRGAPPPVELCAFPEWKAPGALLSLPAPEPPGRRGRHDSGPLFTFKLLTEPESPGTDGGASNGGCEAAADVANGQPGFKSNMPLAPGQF
Experimental: Affinity for the α1b adrenergic receptor was tested using membranes prepared from Chinese hamster ovary (CHO) cells heterologously expressing the cloned human receptor that were incubated with [^3H]prazocine (0.15 nM) in the presence of various concentrations of test compounds for 1 hour at 22° C. Nonspecific binding was determined in the presence of 10 μM phentolamine. Bound radioactivity was determined by scintillation spectroscopy.

CYP2D6 = molecular target: T3, CYP2D6 (Homo sapiens, UniProt P10635); experiment: CYP2D6 inhibition, MAMC substrate; type: in vitro ADME; settings: average of six replicate experiments; for IC50: 95% confidence limits in parentheses; for inhibition at 10 µM: human, microsomes containing human recombinant CYP2D6, probe 7-methoxy-4-(aminomethyl)-coumarin (MAMC), 10 μM test compound, read-out: Inhibition of CYP2D6, % inhib. at 10 μM
T3 construct: purchased BD Bioscience
T3 sequence (P10635 whole entry): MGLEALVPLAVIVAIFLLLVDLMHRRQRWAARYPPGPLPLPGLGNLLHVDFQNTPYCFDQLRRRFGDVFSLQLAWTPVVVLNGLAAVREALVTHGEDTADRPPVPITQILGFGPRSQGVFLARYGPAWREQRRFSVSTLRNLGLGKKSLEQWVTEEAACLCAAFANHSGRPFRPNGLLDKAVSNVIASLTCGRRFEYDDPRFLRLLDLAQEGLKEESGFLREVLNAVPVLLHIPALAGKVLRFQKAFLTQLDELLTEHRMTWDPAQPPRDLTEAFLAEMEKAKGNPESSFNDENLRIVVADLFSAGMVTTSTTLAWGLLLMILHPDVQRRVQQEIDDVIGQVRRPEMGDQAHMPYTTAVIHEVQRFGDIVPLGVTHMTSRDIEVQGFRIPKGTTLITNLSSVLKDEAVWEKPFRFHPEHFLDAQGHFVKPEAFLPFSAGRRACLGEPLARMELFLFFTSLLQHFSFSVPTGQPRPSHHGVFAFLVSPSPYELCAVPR
Experimental: Protocol. The inhibitory activities of AT and NT, (+)-E-10-OH-NT and (−)-E-10-OH-NT on cytochrome P450 function were tested using the methods of Chauret et al., 2001, using 7-methoxy-4-(aminomethyl)-coumarin (MAMC) (Venhorst et al., 2000) as substrate. The source of the enzyme was microsomes containing human recombinant CYP2D6 obtained from BD Bioscience. Conversion of MAMC to 7-hydroxy-4-(aminomethyl)coumarin was measured using a PerkinElmer Fusion with a 390 nm excitation filter and a 460 nm emission filter.

hERG = hERG (Homo sapiens, UniProt Q12809); experiment: hERG channel inhibition; type: biochemical; settings: cloned hERG channel α subunit (expression host not stated), 10 μM test compound, read-out: percent inhibition of hERG channels
hERG, sequence (Q12809 whole entry): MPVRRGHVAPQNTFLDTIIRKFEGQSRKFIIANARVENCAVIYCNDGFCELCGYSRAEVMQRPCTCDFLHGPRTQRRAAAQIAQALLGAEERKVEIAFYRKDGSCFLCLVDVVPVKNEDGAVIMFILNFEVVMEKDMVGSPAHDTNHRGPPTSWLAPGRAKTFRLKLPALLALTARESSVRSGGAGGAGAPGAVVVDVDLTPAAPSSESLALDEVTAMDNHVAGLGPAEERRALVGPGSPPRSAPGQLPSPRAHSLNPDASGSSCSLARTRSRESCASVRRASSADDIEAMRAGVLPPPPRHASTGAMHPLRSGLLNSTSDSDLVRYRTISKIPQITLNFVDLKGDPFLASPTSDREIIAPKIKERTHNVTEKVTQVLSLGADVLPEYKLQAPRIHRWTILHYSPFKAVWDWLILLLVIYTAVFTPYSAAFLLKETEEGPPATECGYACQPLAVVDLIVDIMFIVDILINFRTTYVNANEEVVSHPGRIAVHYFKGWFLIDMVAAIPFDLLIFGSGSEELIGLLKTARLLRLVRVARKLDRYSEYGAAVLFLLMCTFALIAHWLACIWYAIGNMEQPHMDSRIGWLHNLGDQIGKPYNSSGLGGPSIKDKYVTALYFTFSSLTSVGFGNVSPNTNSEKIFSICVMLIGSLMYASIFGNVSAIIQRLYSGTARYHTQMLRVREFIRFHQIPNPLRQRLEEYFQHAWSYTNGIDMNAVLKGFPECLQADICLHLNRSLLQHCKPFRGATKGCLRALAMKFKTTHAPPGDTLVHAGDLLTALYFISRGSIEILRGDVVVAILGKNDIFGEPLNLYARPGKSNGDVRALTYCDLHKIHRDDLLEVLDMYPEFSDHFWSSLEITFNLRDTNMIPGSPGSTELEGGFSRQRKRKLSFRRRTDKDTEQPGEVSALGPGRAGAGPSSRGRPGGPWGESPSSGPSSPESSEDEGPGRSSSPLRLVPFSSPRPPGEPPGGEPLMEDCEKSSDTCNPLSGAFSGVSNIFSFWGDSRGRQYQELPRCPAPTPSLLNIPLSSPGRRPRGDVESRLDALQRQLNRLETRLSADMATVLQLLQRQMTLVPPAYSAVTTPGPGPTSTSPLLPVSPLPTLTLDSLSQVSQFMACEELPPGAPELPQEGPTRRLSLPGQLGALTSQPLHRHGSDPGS

[1] = molecular target: T4, DA uptake, rat striatum synaptosomes (Rattus norvegicus, UniProt P23977); experiment: Inhibition of [3H]-DA uptake into synaptosomes; type: biochemical; settings: for IC50: read-out: Monoamine Uptake Inhibition, DA, IC50; for inhibition at 10 µM: read-out: Monoamine Uptake Inhibition, DA, % inhib. at 10 μM
T4 construct: into rat striatum synaptosomes; from tissue; host or cells: rat striatum synaptosomes
T4 sequence (P23977 whole entry): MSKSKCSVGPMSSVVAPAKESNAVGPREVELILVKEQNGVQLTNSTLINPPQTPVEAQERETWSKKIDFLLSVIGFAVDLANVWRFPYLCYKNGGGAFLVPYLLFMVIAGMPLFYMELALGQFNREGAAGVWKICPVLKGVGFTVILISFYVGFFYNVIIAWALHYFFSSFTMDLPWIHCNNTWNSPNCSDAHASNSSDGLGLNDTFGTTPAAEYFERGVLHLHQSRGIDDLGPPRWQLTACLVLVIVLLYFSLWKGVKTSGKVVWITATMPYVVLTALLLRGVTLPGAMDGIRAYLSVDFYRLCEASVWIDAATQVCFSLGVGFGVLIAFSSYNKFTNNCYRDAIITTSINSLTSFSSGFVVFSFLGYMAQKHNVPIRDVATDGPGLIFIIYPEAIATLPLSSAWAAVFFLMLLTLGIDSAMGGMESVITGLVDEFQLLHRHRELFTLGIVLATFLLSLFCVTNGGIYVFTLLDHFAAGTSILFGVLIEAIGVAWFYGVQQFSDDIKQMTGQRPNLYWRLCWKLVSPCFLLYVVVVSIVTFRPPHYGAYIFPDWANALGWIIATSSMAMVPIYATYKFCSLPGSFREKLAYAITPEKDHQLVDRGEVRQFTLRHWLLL

[2] = test system: rotarod performance in rats; experiment: Rat rotarod assay of sedation; type: in vivo; settings: for peak deficit in rotarod performance: 30 mg/kg, i.p., peak at 30 minutes; for ED50 for impairment of rotarod performance: IP
Experimental: Protocol. The rat rotarod assay is commonly used to assess sedation associated with chemical drugs. […] Once the rats were in position, the timers were set to zero and the rotarod switched to accelerating mode. The rotarod accelerated from 4 to 40 rpm over a five-minute interval. The timers automatically turned off when the rats fell from the rotating drum, recording a latency to fall in seconds. […] The performance score was recorded in seconds for each interval. The baseline rotarod performance score was the latency to fall off the rotarod on the third training session. Baselines must have been greater than or equal to 60 seconds duration for the rat to be included in the experiment.

[3] = molecular target: T5, human muscarinic receptor M4 (Homo sapiens, UniProt P08173); experiment: Muscarinic M4 receptor binding, [3H]4-DAMP; settings: read-out: Affinity for Muscarinic Receptors, M4, Ki
T5 construct: expressed in transfected cells; host or cells: CHO cells (membranes)
T5 sequence (P08173 1-479): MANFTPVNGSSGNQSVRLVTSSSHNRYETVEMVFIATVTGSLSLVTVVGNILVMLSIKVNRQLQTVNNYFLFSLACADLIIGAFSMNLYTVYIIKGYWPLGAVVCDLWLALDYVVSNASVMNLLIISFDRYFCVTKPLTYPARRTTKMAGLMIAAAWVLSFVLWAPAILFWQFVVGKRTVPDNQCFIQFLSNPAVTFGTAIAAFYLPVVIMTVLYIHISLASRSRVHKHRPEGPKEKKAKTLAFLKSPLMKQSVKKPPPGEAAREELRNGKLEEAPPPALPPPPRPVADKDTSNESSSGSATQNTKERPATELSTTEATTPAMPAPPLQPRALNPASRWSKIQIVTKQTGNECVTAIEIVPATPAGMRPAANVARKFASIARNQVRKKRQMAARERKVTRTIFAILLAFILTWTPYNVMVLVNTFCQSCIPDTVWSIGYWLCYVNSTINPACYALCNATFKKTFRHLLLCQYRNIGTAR
Experimental: Protocol. […] Bound radioactivity was determined by scintillation spectroscopy. Non-specific binding was defined as the amount of bound radioligand in the presence of 1.0 μM atropine. Radioligand for the M1 receptor was [^3H]pirenzepine (2 nM). Radioligand for the M2 receptor was [^3H]AF-DX384 (2 nM). Radioligand for the M3, M4, and M5 receptors was [^3H]4-DAMP.

[4] = read-out: Affinity at α1b adrenergic receptor, Ki

SMILES	IC50 (CYP2C19)	Ki (α1b adrenergic receptor)	IC50 (CYP2D6)	inhibition at 10 µM (hERG)	IC50 [1]	peak deficit in rotarod performance ([2]; rats)	Ki [3]	Ki (α1b adrenergic receptor; [4])	maximal impairment of rotarod performance ([2]; 100 mg/kg IP, rats)	ED50 for impairment of rotarod performance ([2]; rats)	inhibition at 10 µM (CYP2C19)	inhibition at 10 µM (CYP2D6)	inhibition at 10 µM [1]	impairment of rotarod performance ([2]; 30 mg/kg IP, rats (Example 17))
CNCCC=C1c2ccccc2CCc2ccccc21 [NT, nortriptyline, reference compound]	1500 nM	21 nM	700 nM	55.1%	1700 nM	60±14% and 60±40%								
CN(C)CCC=C1c2ccccc2CCc2ccccc21 [AT, amitriptyline, reference compound]	3500 nM		820 nM		2400 nM	51±20%	3.6 nM	5.9 nM	96%	27 mg/kg IP				
CNCC/C=C1\c2ccccc2C[C@H](O)c2ccccc21 (stereo in doubt) [(+)-E-10-OH-NT]				8.8%	> 1000 nM		390 nM	690 nM			20%	40%	19%	
CNCC/C=C1\c2ccccc2C[C@@H](O)c2ccccc21 (stereo in doubt) [(−)-E-10-OH-NT]				6%	> 1000 nM	no impairment in rotarod performance; also recorded: no significant impairment in performance; also recorded: no impairment of performance	170 nM	2600 nM		120 mg/kg IP	24%	37%	16%	5%
